{
  "source": "patent US7615554B2",
  "about": "“Erastin and erastin binding proteins, and uses thereof” (Prolexys Pharmaceuticals, Inc., priority 2005, dated 2009)",
  "key": {"engineered cell lines": {"tested_on": "engineered cell lines", "assay": "Selectivity across the engineered cell lines (calcein AM IC50 ratios)", "type": "cell-based, human", "conditions": "from selectivity ratio for each subsequent pair of cell lines in a series", "description": "To calculate this selectivity score between two cell lines, the IC50 for a compound in one cell line was divided by the IC50 for the same compound in a second cell line. […] The “tumor selectivity score” was calculated for each compound, by dividing the IC50 value for the compound in the parental, primary BJ cells by the IC50 value for the compound in engineered BJ-TERTALT/ST/RAS^V12 cells, containing all four genetic elements required to create tumorigenic cells (Table 1).\nApplicants sought to determine the genetic basis of selectivity for each compound. That is, for each compound, they attempted to define the gene or combination of genes responsible for rendering cells sensitive to the compound (Table 1).\nThe IC50 in primary BJ cells was divided by the IC50 in BJ-TERT/LT/ST/RAS^V12 tumorigenic cells to obtain a tumor selectivity ratio for each compound. The compound selectivity for each genetic element was determined by calculating the selectivity ratio for each subsequent pair of cell lines in a series."}, "BJ primary cells": {"tested_on": "BJ primary cells", "assay": "Sensitization of BJ primary cells by co-treatment (calcein AM viability)", "type": "cell-based, human", "conditions": "BJ (or BJ-TERT) cells, simultaneous treatment with camptothecin", "from_the_text": "(A-C) Western blot of lysates from BJ, BJ-TERT, BJ-TERT/LT/ST, BJ-TERT/LT/ST/RAS^V12, BJ-TERT/LT/RAS^V12 and BJ-TERT/LT/RAS^V12/ST cells with an antibody directed against topoisomerase II (A) or TOPI (B, C). In panel (C), cells were transfected with a siRNA directed against TOPI, lamic A/C or with a control double strand DNA duplex of the same length (TOPI dsDNA). In each case, the blot was probed with an antibody against eIF-4E to identify differences in the amount of protein loaded. The relative amount is quantitated below each band. (D) A TOPI siRNA prevents cell death caused by camptothecin in engineered tumor cells. Cell number was determined after transfection with a siRNA directed against TOPI and treatment with the indicated concentrations of camptothecin. (E) Okadaic acid, an inhibitor of PP2A and other cellular phosphatases, sensitizes primary human cells to camptothecin. BJ primary cells were treated simultaneously with the indicated concentrations of both camptothecin and okadaic acid and the effect on calcein AM viability staining was determined. […] BJ primary cells were treated with the indicated concentrations of okadaic acid and the expression level of TOPI was determined by western blot. The relative amount is quantitated below each band.\nThe compounds in group (iii) are camptothecin (CPT) and a novel compound from a combinatorial library, which Applicants have named erastin, for eradicator of RAS and ST-expressing cells (FIG. 2). Efficient CPT-induced and erastin-induced cell death requires the presence of both ST and RAS^V12 (FIGS. 3 and 4 and Table 1). Although CPT and erastin have a similar genetic basis of selectivity, they have distinct mechanisms of action. CPT is partially active in cells lacking RB function (via expression of E7), whereas erastin is not, and CPT requires two days to cause death in BJ-TERT/LT/ST/RAS^V12 cells, while erastin is 100% effective within 18 hours (FIGS. 3 and 4). […]"}, "PANC-1 xenografts": {"tested_on": "PANC-1 xenografts", "assay": "PANC-1 tumor treatment study", "type": "in vivo", "conditions": "immunodeficient nude mouse; once a day for five consecutive days", "description": "The experimental plan for the PANC-1 study was essentially identical to that of the HT-1080 study outlined above in Example 10 with the following exceptions: approximately 30-40 mg fragment of passaged PANC-1 tumor tissue was implanted subcutaneously in the right flank of an immunodeficient nude mouse. Tumor growth was monitored daily and when the tumors reached approximately 100 mm^3, animals harboring similarly sized tumors were group matched and compound dosing was initiated. Administration of compound 5 occurred once a day for five consecutive days at the doses listed below. In the PANC-1 xenografts, gemcitabine, administered at the maximum tolerated dose for the model, was used as a control. The gemcitabine regimen was 180 mg/kg […] on every third day over a period of 9 days."}, "HT-1080 xenografts": {"tested_on": "HT-1080 xenografts", "assay": "HT-1080 tumor treatment study", "type": "in vivo, mouse", "conditions": "nude Balb/c mice; 100 or 50 mg/Kg, QD×5 days, IP", "description": "Nude Balb/c (Nu/Nu strain, Charles River Laboratories), female, 5-6 week old (˜20 g average body weight).\nBoth compounds were formulated in an identical manner. For the 100 mg/kg dose level, each compound was delivered at a concentration of 10.0 mg/ml, in an injection volume of 0.2 ml. For the 50 mg/kg dose level, each compound was delivered at a concentration of 5.0 mg/ml, in an injection volume of 0.2 ml. For both dose levels, the vehicle contained 0.025% Tween-80, 0.01% benzyl alcohol, 35 mM acetic acid (HOAc), 100 mM potassium phosphate-buffer, and 32 mM sucrose, pH=6.5.\n• A: PRLX compound 6 @ 100 mg/Kg, QD×5 days, IP, n=8 • B: PRLX compound 6 @ 50 mg/Kg, QD×5 days, IP, n=8 • C: PRLX compound 5 @ 100 mg/Kg, QD×5 days, IP, n=8 • D: PRLX compound 5 @ 50 mg/Kg, QD×5 days, IP, n=8 • E: Vehicle Control, QD×5 days, IP, n=8 • F: Untreated Control, n=8 Treatment Schedule:\nBeginning when the mean tumor volume reached ˜200 mm^3, and continuing through day 5, every day, each animal was administered a single IP injection of one of the above treatments, for a total of 5 doses. […]\nStarting on Day 1, all animals were weighed, and tumor dimensions (length (L) and width (W)) were measured, every other day. […]\nThe resulting tumor volume values were averaged for each study group for each time point, and were then plotted against time. Variance was expressed as standard error of the mean (±SEM)."}, "[1]": {"tested_on": "BJ-TERT/LT/ST/RAS^V12 tumorigenic cells", "assay": "Calcein AM viability assay, BJ-TERT/LT/ST/RAS^V12 cells", "type": "cell-based, human", "from_the_text": "Described here is work carried out to identify compounds with increased potency or activity in the presence of hTERT, LT, ST, E6, E7 or RAS^V12. Although the work described herein made use of hTERT, LT, ST, E6, E7 and RAS^V12 as transforming genes, future studies can make use of a wide variety of cancer-associated alleles using this methodology in order to define the signaling networks that involve many oncogenes and tumor suppressors. Engineered cell lines with these genetic elements were used to screen 23,550 compounds, including 20,000 compounds from a combinatorial library, 1,990 compounds from the National Cancer Institute diversity collection, and 1,540 biologically active known compounds that were selected and purchased by Applicant and formatted into a screenable collection. […] Cell viability was measured using the dye calcein acetoxymethyl ester (calcein AM) (Wang et al., 1993, Hum. Immunol. 37, 264-270), which is a non-fluorescent compound that freely diffuses into cells. […]\nCalcein acetoxylmethyl ester (AM) is a cell membrane-permeable, non-fluorescent compound that is cleaved by intracellular esterases to form the anionic, cell-impermeable, fluorescent compound calcein. […] Total fluorescence intensity in each well was recorded on a Packard Fusion platereader, and converted to a percent inhibition of signal by subtracting the instrument background and dividing by the average signal obtained when cells were not treated with any compound. […]\nMean RFU (relative fluorescence units) for untreated cells was calculated by averaging columns 1, 2, and 23 (wells with cells but lacking compounds). The calcein background was calculated by averaging column 24 (wells with calcein, but lacking cells). Percentage inhibition of each well was calculated as [1−(RFU−calcein control)/(untreated cell−calcein control)*100]. […]"}},
  "data": [
    {"smiles": "COc1cccc2c1C(=O)c1c(O)c3c(c(O)c1C2=O)C[C@@](O)(C(=O)CO)C[C@@H]3O[C@H]1C[C@H](N)[C@H](O)[C@H](C)O1", "note": "[Doxorubicin, doxorubicin]", "values": [
      {"measurement": "Genetic basis of Selectivity", "setting": "engineered cell lines", "value": "TERT/RB"}
    ]},
    {"smiles": "O=C1c2c(O)ccc(O)c2C(=O)c2c(NCCNCCO)ccc(NCCNCCO)c21", "note": "[Mitoxantrone, mitoxantrone]", "values": [
      {"measurement": "Genetic basis of Selectivity", "setting": "engineered cell lines", "value": "TERT/RB"}
    ]},
    {"smiles": "COc1cccc2c1C(=O)c1c(O)c3c(c(O)c1C2=O)C[C@@](O)(C(C)=O)C[C@@H]3O[C@H]1C[C@H](N)[C@H](O)[C@H](C)O1", "note": "[Daunorubicin, daunorubicin]", "values": [
      {"measurement": "Genetic basis of Selectivity", "setting": "engineered cell lines", "value": "TERT/RB"}
    ]},
    {"smiles": "CS[C@H]1SC[C@H]2C(=O)N(C)[C@@H](C(C)C)C(=O)OC[C@@H](NC(=O)c3cnc4ccccc4n3)C(=O)N[C@@H](C)C(=O)N(C)[C@@H]1C(=O)N(C)[C@@H](C(C)C)C(=O)OC[C@@H](NC(=O)c1cnc3ccccc3n1)C(=O)N[C@@H](C)C(=O)N2C", "note": "[Echinomycin, echinomycin]", "values": [
      {"measurement": "Genetic basis of Selectivity", "setting": "engineered cell lines", "value": "non-specific"}
    ]},
    {"smiles": "COc1cc([C@@H]2c3cc4c(cc3[C@H](O)[C@H]3COC(=O)[C@H]23)OCO4)cc(OC)c1OC", "note": "[podophyllotoxin]", "values": [
      {"measurement": "sensitization to camptothecin", "setting": "BJ primary cells", "value": "does not sensitize BJ or BJ-TERT cells to CPT"}
    ]},
    {"smiles": "CCOc1ccccc1-n1c(C(C)N2CCNCC2)nc2ccccc2c1=O", "note": "(stereo not shown) [Compound 6]", "values": [
      {"measurement": "antitumor activity in PANC-1 xenografts (tumor volume)", "setting": "PANC-1 xenografts", "value": "tumor growth inhibition"},
      {"measurement": "antitumor activity in HT-1080 xenografts (tumor volume)", "setting": "HT-1080 xenografts", "value": "tumor growth inhibition"}
    ]},
    {"smiles": "CCOc1ccccc1-n1c(C(C)N2CCN(C(=O)COc3ccc(Cl)cc3)CC2)nc2ccccc2c1=O", "note": "(stereo not shown) [Erastin, erastin]", "values": [
      {"measurement": "effectiveness of cell killing", "setting": "[1]; BJ-TERT/LT/ST/RAS^V12 cells, within 18 hours", "value": 100, "unit": "%"},
      {"measurement": "time to irreversible, non-apoptotic cell death", "setting": "[1]; ST- and RAS^V12-dependent", "value": "12 to 24", "unit": "h"}
    ]},
    {"smiles": "COc1ccc(C[C@H]2C(=O)N[C@@H](C)C(=O)N(C)[C@@H]3C(=O)N(C)[C@@H](Cc4ccc(O)c(c4)Oc4ccc(cc4)[C@@H]3O)C(=O)N[C@H](C)C(=O)N[C@@H](C)C(=O)N2C)cc1", "note": "[Bouvardin]", "values": [
      {"measurement": "Genetic basis of Selectivity", "setting": "engineered cell lines", "value": "non-specific"}
    ]},
    {"smiles": "CCOc1ccccc1-n1c(CN2CCNCC2)nc2ccccc2c1=O", "note": "[Compound 5, 3-(2-ethoxyphenyl)-2-(piperazin-1-ylmethyl)quinazolin-4(3H)-one]", "values": [
      {"measurement": "antitumor activity in PANC-1 xenografts (tumor volume)", "setting": "PANC-1 xenografts", "value": "tumor regression"},
      {"measurement": "antitumor activity in HT-1080 xenografts (tumor volume)", "setting": "HT-1080 xenografts", "value": "robust tumor regression"}
    ]},
    {"smiles": "NC(=O)c1cn([C@@H]2O[C@H](CO)[C@@H](O)[C@H]2O)c2ncnc(N)c12", "note": "[Sangivamycin, sangivamycin]", "values": [
      {"measurement": "Genetic basis of Selectivity", "setting": "engineered cell lines", "value": "non-specific"}
    ]}
  ]
}
